Test results published in ChEMBL document CHEMBL3991601, “The target landscape of clinical kinase drugs” (Science, 2017).
Calls of active or inactive are those of the source.

How the values were obtained:
[1] = biological target: Serine/threonine-protein kinase PAK 2 (Homo sapiens, UniProt Q13177)
[2] = biological target: Guanine nucleotide-binding protein G(i) subunit alpha-2 (Homo sapiens, UniProt P04899)
[3] = biological target: Ribosomal protein S6 kinase alpha-1 (Homo sapiens, UniProt Q15418)
[4] = biological target: Structural maintenance of chromosomes protein 2 (Homo sapiens, UniProt O95347)
[5] = biological target: T1, Cyclin-G-associated kinase (Homo sapiens, UniProt O14976)
T1 sequence (O14976 whole entry): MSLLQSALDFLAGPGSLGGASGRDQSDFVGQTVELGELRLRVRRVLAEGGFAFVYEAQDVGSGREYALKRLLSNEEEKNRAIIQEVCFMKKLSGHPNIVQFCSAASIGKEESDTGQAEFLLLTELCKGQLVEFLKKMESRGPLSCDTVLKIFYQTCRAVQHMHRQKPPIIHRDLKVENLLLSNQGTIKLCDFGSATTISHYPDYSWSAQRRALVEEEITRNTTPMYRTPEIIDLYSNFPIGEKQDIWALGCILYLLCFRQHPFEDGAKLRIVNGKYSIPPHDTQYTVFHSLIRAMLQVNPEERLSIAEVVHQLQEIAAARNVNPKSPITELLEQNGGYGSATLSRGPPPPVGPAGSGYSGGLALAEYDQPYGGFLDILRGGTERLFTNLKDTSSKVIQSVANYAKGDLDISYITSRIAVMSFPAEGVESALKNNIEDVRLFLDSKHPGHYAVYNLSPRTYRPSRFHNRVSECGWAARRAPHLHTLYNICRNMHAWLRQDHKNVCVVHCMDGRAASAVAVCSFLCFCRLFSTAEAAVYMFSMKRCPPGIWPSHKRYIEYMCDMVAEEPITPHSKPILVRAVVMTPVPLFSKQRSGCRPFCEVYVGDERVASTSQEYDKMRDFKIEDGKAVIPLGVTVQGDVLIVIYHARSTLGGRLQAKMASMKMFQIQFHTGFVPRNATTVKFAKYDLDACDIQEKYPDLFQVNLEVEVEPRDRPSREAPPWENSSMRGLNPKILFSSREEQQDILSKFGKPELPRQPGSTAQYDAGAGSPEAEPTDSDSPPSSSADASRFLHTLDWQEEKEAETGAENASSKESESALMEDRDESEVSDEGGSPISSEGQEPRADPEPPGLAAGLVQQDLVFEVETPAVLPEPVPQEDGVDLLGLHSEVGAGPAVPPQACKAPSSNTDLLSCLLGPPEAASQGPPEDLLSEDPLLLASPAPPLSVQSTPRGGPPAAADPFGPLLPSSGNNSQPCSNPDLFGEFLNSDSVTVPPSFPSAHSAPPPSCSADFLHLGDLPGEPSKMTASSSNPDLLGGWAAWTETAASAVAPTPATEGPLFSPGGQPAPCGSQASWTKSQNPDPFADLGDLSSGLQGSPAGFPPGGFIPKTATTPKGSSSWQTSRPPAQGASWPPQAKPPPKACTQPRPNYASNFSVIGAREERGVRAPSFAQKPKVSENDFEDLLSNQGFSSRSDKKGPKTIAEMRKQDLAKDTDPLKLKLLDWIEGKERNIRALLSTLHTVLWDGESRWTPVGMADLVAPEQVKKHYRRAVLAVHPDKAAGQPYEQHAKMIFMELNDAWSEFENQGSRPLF

GTP-binding protein 4 = GTP-binding protein 4 (Homo sapiens, UniProt Q9BZE4)
ADP/ATP translocase 2 = biological target: T2, ADP/ATP translocase 2 (Homo sapiens, UniProt P05141)
T2 sequence (P05141 whole entry): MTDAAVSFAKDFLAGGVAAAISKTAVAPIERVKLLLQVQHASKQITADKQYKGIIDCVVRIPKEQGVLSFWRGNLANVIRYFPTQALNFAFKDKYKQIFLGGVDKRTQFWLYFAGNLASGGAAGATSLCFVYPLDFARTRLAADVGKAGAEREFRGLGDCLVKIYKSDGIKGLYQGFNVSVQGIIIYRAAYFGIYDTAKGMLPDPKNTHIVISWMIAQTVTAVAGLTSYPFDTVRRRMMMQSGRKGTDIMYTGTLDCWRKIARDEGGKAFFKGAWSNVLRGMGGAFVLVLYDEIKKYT

[6] = biological target: T3, ATP-dependent RNA helicase DDX1 (Homo sapiens, UniProt Q92499)
T3 sequence (Q92499 whole entry): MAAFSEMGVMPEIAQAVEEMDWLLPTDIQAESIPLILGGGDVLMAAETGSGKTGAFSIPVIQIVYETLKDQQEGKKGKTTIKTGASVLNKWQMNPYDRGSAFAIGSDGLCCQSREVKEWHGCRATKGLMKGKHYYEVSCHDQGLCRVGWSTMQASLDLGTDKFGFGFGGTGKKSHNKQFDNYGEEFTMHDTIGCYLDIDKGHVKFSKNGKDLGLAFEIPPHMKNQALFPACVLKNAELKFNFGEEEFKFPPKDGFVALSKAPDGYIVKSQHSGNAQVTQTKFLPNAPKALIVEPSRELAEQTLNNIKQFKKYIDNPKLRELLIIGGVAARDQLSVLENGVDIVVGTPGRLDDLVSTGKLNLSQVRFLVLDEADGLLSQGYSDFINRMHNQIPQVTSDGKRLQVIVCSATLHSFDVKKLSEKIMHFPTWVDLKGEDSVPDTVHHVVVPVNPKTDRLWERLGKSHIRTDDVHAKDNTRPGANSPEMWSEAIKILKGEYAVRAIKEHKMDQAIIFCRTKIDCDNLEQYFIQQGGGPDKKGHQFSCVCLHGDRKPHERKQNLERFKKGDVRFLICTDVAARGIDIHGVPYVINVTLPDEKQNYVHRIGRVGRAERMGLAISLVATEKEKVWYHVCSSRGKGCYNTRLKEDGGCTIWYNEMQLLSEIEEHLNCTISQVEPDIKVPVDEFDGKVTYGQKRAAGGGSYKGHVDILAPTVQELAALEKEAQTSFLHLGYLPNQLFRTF

Ephrin type-A receptor 5 = Ephrin type-A receptor 5 (Homo sapiens, UniProt P54756)
[7] = biological target: Fibroblast growth factor receptor 1 (Homo sapiens, UniProt P11362)
Note: in the data inactive means no Kd found up to 30 µM.

Ribosomal protein S6 kinase alpha-1, sequence (Q15418 whole entry): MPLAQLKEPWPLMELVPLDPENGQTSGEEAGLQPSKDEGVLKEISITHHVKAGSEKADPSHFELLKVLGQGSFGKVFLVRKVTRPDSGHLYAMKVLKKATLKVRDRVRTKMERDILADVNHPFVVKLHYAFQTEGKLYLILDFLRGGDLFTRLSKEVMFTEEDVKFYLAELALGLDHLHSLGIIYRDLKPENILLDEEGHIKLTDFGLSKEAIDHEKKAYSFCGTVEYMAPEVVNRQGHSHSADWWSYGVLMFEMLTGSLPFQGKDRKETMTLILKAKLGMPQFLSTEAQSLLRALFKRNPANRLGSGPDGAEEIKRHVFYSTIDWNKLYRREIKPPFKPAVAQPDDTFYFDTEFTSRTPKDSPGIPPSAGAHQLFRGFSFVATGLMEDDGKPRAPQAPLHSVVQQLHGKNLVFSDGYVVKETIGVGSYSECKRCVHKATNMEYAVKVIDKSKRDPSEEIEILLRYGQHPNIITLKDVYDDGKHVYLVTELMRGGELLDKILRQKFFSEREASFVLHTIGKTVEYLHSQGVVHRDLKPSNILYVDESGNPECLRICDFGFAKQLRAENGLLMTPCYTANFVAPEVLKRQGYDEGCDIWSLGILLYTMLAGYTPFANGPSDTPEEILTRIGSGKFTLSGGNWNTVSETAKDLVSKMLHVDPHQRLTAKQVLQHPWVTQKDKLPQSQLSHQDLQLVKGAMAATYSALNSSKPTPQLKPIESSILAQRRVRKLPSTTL
Serine/threonine-protein kinase PAK 2, sequence (Q13177 whole entry): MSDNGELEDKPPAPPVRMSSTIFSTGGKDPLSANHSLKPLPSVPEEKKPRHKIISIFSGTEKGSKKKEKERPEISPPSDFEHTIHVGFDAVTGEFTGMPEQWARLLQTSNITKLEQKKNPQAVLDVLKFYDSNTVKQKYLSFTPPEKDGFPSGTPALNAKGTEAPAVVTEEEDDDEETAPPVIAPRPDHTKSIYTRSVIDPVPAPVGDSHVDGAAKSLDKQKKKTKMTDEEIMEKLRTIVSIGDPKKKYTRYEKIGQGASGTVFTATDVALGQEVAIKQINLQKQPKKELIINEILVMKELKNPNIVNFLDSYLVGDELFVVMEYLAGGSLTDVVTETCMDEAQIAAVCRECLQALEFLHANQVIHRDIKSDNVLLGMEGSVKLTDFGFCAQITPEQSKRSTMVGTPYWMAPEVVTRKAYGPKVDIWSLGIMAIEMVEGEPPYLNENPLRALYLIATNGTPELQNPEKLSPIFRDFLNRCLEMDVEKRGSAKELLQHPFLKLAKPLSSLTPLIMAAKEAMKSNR
Ephrin type-A receptor 5, sequence (P54756 whole entry): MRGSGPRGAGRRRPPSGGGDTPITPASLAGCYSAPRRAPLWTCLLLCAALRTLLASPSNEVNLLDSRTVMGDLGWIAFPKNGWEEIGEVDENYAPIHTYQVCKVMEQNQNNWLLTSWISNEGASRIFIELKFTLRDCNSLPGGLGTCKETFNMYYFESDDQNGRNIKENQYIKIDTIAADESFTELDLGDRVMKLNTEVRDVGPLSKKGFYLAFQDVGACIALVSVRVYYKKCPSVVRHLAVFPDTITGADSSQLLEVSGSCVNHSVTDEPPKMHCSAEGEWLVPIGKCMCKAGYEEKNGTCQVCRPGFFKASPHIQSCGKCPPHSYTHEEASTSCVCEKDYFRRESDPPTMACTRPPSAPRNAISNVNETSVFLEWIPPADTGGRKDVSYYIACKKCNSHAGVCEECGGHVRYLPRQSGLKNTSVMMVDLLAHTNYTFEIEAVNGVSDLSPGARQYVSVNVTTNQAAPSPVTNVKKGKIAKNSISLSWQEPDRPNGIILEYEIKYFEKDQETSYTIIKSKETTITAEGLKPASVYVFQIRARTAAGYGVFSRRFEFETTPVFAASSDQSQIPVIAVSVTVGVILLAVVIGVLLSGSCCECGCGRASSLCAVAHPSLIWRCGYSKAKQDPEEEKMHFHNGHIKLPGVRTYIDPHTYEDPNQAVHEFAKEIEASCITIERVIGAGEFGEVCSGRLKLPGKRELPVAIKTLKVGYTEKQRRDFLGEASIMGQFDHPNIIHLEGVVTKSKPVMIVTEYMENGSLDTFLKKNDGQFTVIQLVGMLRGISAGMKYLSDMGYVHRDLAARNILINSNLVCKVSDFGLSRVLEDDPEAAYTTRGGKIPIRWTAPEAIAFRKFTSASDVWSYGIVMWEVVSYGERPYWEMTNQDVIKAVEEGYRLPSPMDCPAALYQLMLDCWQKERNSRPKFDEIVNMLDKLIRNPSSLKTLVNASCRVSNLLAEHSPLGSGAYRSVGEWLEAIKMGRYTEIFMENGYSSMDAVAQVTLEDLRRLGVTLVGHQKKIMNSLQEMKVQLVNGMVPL
Guanine nucleotide-binding protein G(i) subunit alpha-2, sequence (P04899 whole entry): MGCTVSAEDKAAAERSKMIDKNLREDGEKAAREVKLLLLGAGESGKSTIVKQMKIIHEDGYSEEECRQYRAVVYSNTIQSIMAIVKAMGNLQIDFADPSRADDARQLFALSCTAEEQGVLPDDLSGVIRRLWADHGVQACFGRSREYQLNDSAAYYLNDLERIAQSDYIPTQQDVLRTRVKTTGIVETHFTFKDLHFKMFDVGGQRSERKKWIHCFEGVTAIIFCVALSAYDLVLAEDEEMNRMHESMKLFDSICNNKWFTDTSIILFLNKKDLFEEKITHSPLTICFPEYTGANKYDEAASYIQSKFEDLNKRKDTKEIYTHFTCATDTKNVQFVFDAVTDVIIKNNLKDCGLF
Fibroblast growth factor receptor 1, sequence (P11362 whole entry): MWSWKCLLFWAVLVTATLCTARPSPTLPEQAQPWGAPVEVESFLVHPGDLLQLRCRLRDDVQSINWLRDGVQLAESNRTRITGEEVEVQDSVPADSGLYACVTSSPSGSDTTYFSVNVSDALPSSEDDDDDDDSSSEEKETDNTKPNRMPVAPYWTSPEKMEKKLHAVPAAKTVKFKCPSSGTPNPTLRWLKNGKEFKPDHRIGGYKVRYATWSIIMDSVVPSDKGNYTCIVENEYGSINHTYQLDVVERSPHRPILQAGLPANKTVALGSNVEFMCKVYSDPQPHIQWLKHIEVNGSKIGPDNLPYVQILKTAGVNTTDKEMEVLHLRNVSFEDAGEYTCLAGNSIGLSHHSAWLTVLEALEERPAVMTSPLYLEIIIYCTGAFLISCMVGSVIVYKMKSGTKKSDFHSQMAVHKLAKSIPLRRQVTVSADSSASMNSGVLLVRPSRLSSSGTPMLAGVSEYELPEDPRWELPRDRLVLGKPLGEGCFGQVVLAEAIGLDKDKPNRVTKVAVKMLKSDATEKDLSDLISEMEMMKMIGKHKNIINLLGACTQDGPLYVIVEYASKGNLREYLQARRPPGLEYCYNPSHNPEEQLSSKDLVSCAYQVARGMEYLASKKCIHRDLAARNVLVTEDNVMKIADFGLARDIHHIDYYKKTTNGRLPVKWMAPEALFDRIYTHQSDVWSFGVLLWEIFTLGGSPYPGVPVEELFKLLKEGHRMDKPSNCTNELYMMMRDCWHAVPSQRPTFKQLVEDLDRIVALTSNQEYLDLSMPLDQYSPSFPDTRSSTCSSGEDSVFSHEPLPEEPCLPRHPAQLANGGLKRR
Structural maintenance of chromosomes protein 2, sequence (O95347 whole entry): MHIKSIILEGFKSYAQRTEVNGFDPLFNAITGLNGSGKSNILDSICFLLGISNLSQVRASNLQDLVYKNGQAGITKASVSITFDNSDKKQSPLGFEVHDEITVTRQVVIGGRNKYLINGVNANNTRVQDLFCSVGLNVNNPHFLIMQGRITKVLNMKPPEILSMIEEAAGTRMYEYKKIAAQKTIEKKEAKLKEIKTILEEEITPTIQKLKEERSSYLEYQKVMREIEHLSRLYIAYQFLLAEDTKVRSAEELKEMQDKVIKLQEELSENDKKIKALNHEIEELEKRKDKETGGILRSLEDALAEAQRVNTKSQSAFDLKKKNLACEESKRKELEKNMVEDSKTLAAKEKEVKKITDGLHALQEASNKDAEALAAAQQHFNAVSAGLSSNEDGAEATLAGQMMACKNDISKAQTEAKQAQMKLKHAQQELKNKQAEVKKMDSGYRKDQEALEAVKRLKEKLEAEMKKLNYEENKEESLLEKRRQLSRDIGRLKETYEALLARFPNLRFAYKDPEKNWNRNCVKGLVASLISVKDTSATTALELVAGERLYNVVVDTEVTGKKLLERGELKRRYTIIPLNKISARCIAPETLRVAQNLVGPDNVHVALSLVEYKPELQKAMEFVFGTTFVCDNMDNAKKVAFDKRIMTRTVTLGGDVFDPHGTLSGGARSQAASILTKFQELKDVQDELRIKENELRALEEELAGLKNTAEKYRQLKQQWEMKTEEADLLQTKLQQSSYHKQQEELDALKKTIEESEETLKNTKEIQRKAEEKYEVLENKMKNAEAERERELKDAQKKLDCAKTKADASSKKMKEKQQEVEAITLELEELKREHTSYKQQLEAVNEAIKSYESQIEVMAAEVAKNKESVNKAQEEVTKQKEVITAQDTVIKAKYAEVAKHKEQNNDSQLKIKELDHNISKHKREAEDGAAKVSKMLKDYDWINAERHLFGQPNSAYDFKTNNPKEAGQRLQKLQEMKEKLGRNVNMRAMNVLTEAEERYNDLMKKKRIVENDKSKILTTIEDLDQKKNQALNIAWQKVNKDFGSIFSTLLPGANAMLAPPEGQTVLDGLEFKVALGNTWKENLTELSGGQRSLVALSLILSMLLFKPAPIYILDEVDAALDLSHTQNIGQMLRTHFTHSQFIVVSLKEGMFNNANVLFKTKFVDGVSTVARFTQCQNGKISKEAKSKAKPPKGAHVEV

SMILES	Kd [1]	Kd [3]	Kd [4]	Kd [5]	Kd (GTP-binding protein 4)	Kd (ADP/ATP translocase 2)	Kd [6]	Kd (Ephrin type-A receptor 5)	Kd [7]	Kd [2]
N#CCNC(=O)c1ccc(-c2ccnc(Nc3ccc(N4CCOCC4)cc3)n2)cc1 [MOMELOTINIB]	> 30 µM (inactive)		> 30 µM (inactive)	0.822 µM (active)	> 30 µM (inactive)	> 30 µM (inactive)	> 30 µM (inactive)	> 30 µM (inactive)	> 30 µM (inactive)	> 30 µM (inactive)
O=S(=O)(c1cccc2c(O)nccc12)N1CCCNCC1 [HYDROXYFASUDIL]	> 30 µM (inactive)	> 30 µM (inactive)	> 30 µM (inactive)	> 30 µM (inactive)	> 30 µM (inactive)	> 30 µM (inactive)	> 30 µM (inactive)	> 30 µM (inactive)		> 30 µM (inactive)
C=CCn1c(=O)c2cnc(Nc3ccc(N4CCN(C)CC4)cc3)nc2n1-c1cccc(C(C)(C)O)n1 [ADAVOSERTIB]	> 30 µM (inactive)	> 30 µM (inactive)	> 30 µM (inactive)	0.418 µM (active)	> 30 µM (inactive)	> 30 µM (inactive)	> 30 µM (inactive)	> 30 µM (inactive)		> 30 µM (inactive)
O=S(=O)(c1cccc2cnccc12)N1CCCNCC1 [FASUDIL]	> 30 µM (inactive)	> 30 µM (inactive)	> 30 µM (inactive)	> 30 µM (inactive)	> 30 µM (inactive)	> 30 µM (inactive)	> 30 µM (inactive)	> 30 µM (inactive)		> 30 µM (inactive)
CN(c1ncccc1CNc1nc(Nc2ccc3c(c2)CC(=O)N3)ncc1C(F)(F)F)S(C)(=O)=O [PF-00562271]	> 30 µM (inactive)	> 30 µM (inactive)	> 30 µM (inactive)	> 30 µM (inactive)	> 30 µM (inactive)	> 30 µM (inactive)	> 30 µM (inactive)	> 30 µM (inactive)		> 30 µM (inactive)
NC[C@@](O)(c1ccc(Cl)cc1)c1ccc(-c2cn[nH]c2)cc1 [AT-13148]	> 30 µM (inactive)	> 30 µM (inactive)	> 30 µM (inactive)	> 30 µM (inactive)	> 30 µM (inactive)	> 30 µM (inactive)	> 30 µM (inactive)		> 30 µM (inactive)	> 30 µM (inactive)
C=CCN(/C=C1/C(=O)O[C@H](COC)[C@@]2(C)C1=C(O)C(=O)C1=C2[C@H](OC(C)=O)C[C@]2(C)C(=O)CC[C@@H]12)CC=C [SONOLISIB]	> 30 µM (inactive)	> 30 µM (inactive)	> 30 µM (inactive)	> 30 µM (inactive)	> 30 µM (inactive)	> 30 µM (inactive)		> 30 µM (inactive)	> 30 µM (inactive)	> 30 µM (inactive)
CNC(=O)c1ccc(Nc2ncc(C(F)(F)F)c(NCc3nccnc3N(C)S(C)(=O)=O)n2)cc1 [DEFACTINIB]	> 30 µM (inactive)	> 30 µM (inactive)	> 30 µM (inactive)	> 30 µM (inactive)	> 30 µM (inactive)	> 30 µM (inactive)	> 30 µM (inactive)	> 30 µM (inactive)	> 30 µM (inactive)	

Further lines, with some results ahead:

Kd [1]	Kd [3]	Kd [4]	Kd [5]	Kd (GTP-binding protein 4)	Kd (ADP/ATP translocase 2)	Kd [6]	Kd (Ephrin type-A receptor 5)	Kd [7]	SMILES	Kd [2]
> 30 µM (inactive)	> 30 µM (inactive)	> 30 µM (inactive)	> 30 µM (inactive)	> 30 µM (inactive)	> 30 µM (inactive)	> 30 µM (inactive)	> 30 µM (inactive)		CCN(CCCOc1ccc2c(Nc3cc(CC(=O)Nc4cccc(F)c4)n[nH]3)ncnc2c1)CCOP(=O)(O)O [BARASERTIB]	> 30 µM (inactive)
> 30 µM (inactive)	> 30 µM (inactive)	> 30 µM (inactive)	> 30 µM (inactive)	> 30 µM (inactive)	> 30 µM (inactive)	> 30 µM (inactive)	> 30 µM (inactive)	> 30 µM (inactive)	C[C@@H]1COC(Nc2ccc3ncnc(Nc4ccc(OCc5nccs5)c(Cl)c4)c3c2)=N1 [VARLITINIB]	
> 30 µM (inactive)	> 30 µM (inactive)	> 30 µM (inactive)	> 30 µM (inactive)	> 30 µM (inactive)	> 30 µM (inactive)		> 30 µM (inactive)	> 30 µM (inactive)	O=c1[nH]c([C@@H]2CCCN2)nc2c1oc1ccc(Cl)cc12	> 30 µM (inactive)
> 30 µM (inactive)	> 30 µM (inactive)	> 30 µM (inactive)	> 30 µM (inactive)	> 30 µM (inactive)	> 30 µM (inactive)	> 30 µM (inactive)	> 30 µM (inactive)	> 30 µM (inactive)	CC[C@@](C)(Nc1ccnc(-c2c[nH]c3ncccc23)n1)C(=O)NCC(F)(F)F [DECERNOTINIB]	
> 30 µM (inactive)	> 30 µM (inactive)	> 30 µM (inactive)	> 30 µM (inactive)	> 30 µM (inactive)	> 30 µM (inactive)	> 30 µM (inactive)	> 30 µM (inactive)	> 30 µM (inactive)	Cn1c(=O)c(F)c(Nc2ccc(I)cc2F)c2c(=O)n(C[C@@H](O)CO)cnc21 [TAK-733]	
> 30 µM (inactive)	> 30 µM (inactive)	> 30 µM (inactive)	28.7 µM (active)	> 30 µM (inactive)	> 30 µM (inactive)	> 30 µM (inactive)	> 30 µM (inactive)	> 30 µM (inactive)	COc1cc2ncnc(Nc3ccc(O)cc3)c2cc1OC [WHI-P131]	
> 30 µM (inactive)	> 30 µM (inactive)	> 30 µM (inactive)	> 30 µM (inactive)	> 30 µM (inactive)	> 30 µM (inactive)	> 30 µM (inactive)	> 30 µM (inactive)	> 30 µM (inactive)	Cc1ccc(C(=O)Nc2ccc(Oc3cc4cnn(C)c4cc3-c3cn[nH]c3)c(F)c2)c(=O)n1-c1ccc(F)cc1 [MERESTINIB]	
> 30 µM (inactive)	> 30 µM (inactive)	> 30 µM (inactive)	> 30 µM (inactive)	> 30 µM (inactive)	> 30 µM (inactive)	> 30 µM (inactive)	> 30 µM (inactive)		Cn1c(=O)n(-c2ccc(C(C)(C)C#N)cc2)c2c3cc(-c4cnc5ccccc5c4)ccc3ncc21 [DACTOLISIB]	> 30 µM (inactive)
